Measurements taken from PMC10196118, “Evidence for broad cross-reactivity of the SARS-CoV-2 NSP12-directed CD4^+ T-cell response with pre-primed responses directed against common cold coronaviruses” (Frontiers in Immunology, 2023).

System: pre-cultured PBMCs (NSP12-specific T cells)
Assay: IFN-γ ELISpot with single 15-mer peptides after 11–13 days in vitro peptide-pool T-cell expansion
Type: cell-based, human
Conditions: single NSP12 15-mer peptides; for peptide-specific response, donor HH-N12-18, post COVID-19 / peptide-specific response, donor HH-N12-34, post COVID-19 / peptide-specific response, donor HH-N12-35, post COVID-19 / peptide-specific response, donor HH-N12-36, post COVID-19 / peptide-specific response, donor HH-N12-37, post COVID-19: sample post COVID-19; for peptide-specific response, donor HH-N12-18, pre COVID-19 / peptide-specific response, donor HH-N12-34, pre COVID-19 / peptide-specific response, donor HH-N12-35, pre COVID-19 / peptide-specific response, donor HH-N12-36, pre COVID-19 / peptide-specific response, donor HH-N12-37, pre COVID-19: sample pre COVID-19

Sequence | peptide-specific response, donor HH-N12-18, post COVID-19 | peptide-specific response, donor HH-N12-18, pre COVID-19 | peptide-specific response, donor HH-N12-34, post COVID-19 | peptide-specific response, donor HH-N12-34, pre COVID-19 | peptide-specific response, donor HH-N12-35, post COVID-19 | peptide-specific response, donor HH-N12-35, pre COVID-19 | peptide-specific response, donor HH-N12-36, post COVID-19 | peptide-specific response, donor HH-N12-36, pre COVID-19 | peptide-specific response, donor HH-N12-37, post COVID-19 | peptide-specific response, donor HH-N12-37, pre COVID-19
SADAQSFLNRVCGVS [compound 1] | 0 | 0 | 0 | 0 | 0 | 0 | 0.037 | 0 | 0 | 0
SFLNRVCGVSAARLT [compound 2] | 0 | 0 | 0 | 0 | 0 | 0 | 0 | 0 | 0 | 0
TEERLKLFDRYFKYW [compound 56] | 0 | 0 | 0 | 0 | 0 | 0.04 | 0.022 | 0 | 0 | 0
TFSNYQHEETIYNLL [compound 16] | 0 | 0 | 0 | 0 | 0 | 0 | 0 | 0 | 0 | 0
TNCCRFQEKDEDDNL [compound 11] | 0 | 0.035 | 0 | 0 | 0 | 0 | 0 | 0 | 0 | 0
TPGSGVPVVDSYYSL [compound 46] | 0 | 0 | 0 | 0 | 0 | 0 | 0 | 0 | 0 | 0
